Laboratory results published in patent US8415469B2, “Compounds and methods for kinase modulation, and indications therefor” (Plexxikon Inc., priority 2005, dated 2013).

How the values were obtained:
Assay type in all cases: biochemical
IKK beta = target: T1, IKK beta (Homo sapiens, UniProt O14920); experiment: AlphaScreen kinase assay, IKK beta; settings: read-out: IC50, activity toward kinase IKK beta
T1 sequence (O14920 1-756): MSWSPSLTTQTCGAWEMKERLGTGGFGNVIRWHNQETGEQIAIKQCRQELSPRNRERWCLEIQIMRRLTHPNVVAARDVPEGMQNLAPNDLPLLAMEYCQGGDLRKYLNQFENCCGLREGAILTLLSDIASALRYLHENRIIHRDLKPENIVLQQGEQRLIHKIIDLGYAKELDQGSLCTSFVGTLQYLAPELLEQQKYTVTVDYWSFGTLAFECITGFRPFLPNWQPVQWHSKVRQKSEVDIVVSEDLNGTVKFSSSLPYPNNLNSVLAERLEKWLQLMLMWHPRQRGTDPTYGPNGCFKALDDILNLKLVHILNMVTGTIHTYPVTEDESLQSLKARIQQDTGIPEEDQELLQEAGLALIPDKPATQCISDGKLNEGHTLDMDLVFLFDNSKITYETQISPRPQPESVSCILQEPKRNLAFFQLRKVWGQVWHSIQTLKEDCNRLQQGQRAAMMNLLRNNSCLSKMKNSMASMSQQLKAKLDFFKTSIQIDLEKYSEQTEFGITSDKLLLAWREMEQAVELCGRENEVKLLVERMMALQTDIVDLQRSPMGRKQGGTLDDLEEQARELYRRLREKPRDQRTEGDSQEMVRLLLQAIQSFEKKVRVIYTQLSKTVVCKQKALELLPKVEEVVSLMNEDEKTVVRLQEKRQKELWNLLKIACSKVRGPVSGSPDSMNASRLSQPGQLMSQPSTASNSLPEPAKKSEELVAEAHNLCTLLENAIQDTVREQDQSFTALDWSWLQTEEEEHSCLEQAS

Kit = target: T2, Kit (Homo sapiens, UniProt P10721); experiment: AlphaScreen kinase assay, Kit; settings: read-out: IC50, activity toward kinase Kit
T2 construct: P1332.N6 BI PTP KIT M552-K948-X COD; His6 (N); made in house; host or cells: E. coli (PTP1B co-expressed)
T2 sequence (P10721 with tags, fused parts or gaps): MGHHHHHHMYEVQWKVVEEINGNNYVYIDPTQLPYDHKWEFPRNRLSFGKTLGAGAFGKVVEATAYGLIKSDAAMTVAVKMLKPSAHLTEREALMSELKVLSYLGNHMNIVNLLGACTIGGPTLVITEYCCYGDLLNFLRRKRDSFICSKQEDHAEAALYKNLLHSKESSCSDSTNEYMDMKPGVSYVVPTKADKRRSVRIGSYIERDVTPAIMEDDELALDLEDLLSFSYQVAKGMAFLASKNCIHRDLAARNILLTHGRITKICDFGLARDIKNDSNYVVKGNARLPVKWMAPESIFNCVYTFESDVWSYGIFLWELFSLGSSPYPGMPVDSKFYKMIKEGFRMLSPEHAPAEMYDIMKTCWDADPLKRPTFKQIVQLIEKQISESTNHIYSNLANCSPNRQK

Flt1 = target: T3, Flt1 (Homo sapiens, UniProt P17948); experiment: AlphaScreen kinase assay, Flt1; settings: read-out: IC50, activity toward kinase Flt1
T3 construct: P1826.pETN6 BI-PTP FLT1 M799-D1165-X WT; His6 (N); made in house; host or cells: E. coli (PTP1B co-expressed)
T3 sequence (P17948 with tags, fused parts or gaps): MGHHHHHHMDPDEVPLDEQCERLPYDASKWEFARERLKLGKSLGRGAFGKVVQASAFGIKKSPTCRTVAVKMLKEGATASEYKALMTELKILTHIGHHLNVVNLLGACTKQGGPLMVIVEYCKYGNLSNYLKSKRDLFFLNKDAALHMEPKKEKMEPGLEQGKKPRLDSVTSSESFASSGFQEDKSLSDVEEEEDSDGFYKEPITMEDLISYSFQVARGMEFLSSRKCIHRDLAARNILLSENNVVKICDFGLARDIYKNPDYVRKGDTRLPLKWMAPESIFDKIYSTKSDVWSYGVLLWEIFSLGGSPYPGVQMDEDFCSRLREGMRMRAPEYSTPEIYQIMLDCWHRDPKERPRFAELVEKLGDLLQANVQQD

Kdr = target: T4, Kdr (Homo sapiens, UniProt P35968); experiment: Z'-Lyte FRET kinase assay (Invitrogen), Kdr; settings: read-out: IC50, activity toward kinase Kdr
T4 construct: purchased Invitrogen (assay run by Invitrogen)
T4 sequence (P35968 20-1356): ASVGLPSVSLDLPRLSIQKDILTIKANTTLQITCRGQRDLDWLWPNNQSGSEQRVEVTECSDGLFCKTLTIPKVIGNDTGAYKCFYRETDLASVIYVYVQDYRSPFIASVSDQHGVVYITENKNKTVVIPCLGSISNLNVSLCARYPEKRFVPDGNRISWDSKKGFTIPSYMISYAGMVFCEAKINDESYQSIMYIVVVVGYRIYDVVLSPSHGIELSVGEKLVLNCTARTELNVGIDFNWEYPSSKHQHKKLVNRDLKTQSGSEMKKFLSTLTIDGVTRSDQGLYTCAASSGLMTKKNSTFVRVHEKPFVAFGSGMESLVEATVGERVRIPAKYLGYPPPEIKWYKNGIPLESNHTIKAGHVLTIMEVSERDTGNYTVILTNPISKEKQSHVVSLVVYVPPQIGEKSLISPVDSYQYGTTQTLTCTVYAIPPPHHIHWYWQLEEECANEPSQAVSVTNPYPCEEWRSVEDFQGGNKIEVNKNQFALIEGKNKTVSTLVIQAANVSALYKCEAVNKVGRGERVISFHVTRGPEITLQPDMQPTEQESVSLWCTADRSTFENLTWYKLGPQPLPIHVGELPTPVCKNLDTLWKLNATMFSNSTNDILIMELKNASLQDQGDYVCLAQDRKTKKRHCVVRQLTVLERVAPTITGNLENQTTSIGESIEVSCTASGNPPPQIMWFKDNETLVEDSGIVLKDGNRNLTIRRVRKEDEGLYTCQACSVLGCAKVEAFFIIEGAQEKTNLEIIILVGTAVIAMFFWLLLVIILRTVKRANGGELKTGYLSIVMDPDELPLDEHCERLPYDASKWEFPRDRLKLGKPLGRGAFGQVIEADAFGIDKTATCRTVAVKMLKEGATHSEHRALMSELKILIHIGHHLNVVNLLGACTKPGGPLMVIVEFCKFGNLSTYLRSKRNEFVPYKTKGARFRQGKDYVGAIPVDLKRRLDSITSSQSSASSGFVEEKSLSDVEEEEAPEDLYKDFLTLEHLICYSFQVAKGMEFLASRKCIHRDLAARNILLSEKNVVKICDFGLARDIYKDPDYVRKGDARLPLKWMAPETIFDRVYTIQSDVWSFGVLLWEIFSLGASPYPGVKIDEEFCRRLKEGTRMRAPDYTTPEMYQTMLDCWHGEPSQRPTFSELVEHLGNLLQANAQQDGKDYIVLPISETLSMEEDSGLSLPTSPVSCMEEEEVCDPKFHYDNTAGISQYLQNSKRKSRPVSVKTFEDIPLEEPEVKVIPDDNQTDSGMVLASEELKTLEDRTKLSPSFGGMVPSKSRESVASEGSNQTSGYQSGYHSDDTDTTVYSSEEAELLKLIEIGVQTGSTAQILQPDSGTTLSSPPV

Ret = target: T5, Ret (Homo sapiens, UniProt P07949); experiment: AlphaScreen kinase assay, Ret; settings: read-out: IC50, activity toward kinase Ret
T5 construct: P1378.pET-SF BI-PTP RET H661-R1012 HIS; made in house
T5 sequence (P07949 with tags, fused parts or gaps): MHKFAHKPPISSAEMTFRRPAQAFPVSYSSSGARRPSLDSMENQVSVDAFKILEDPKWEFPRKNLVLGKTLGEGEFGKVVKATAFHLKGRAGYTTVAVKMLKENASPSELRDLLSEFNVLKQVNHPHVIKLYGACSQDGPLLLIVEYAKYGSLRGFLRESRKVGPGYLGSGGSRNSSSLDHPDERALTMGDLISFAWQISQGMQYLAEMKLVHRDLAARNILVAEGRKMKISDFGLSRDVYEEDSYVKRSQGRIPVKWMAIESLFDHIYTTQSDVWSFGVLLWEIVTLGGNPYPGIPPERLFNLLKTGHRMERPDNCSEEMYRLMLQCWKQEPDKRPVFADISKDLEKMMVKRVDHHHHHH

EphB2 = target: T6, EphB2 (Homo sapiens, UniProt P29323); experiment: Z'-Lyte FRET kinase assay (Invitrogen), EphB2; settings: read-out: IC50, activity toward kinase EphB2
T6 construct: purchased Invitrogen (assay run by Invitrogen)
T6 sequence (P29323 19-1055): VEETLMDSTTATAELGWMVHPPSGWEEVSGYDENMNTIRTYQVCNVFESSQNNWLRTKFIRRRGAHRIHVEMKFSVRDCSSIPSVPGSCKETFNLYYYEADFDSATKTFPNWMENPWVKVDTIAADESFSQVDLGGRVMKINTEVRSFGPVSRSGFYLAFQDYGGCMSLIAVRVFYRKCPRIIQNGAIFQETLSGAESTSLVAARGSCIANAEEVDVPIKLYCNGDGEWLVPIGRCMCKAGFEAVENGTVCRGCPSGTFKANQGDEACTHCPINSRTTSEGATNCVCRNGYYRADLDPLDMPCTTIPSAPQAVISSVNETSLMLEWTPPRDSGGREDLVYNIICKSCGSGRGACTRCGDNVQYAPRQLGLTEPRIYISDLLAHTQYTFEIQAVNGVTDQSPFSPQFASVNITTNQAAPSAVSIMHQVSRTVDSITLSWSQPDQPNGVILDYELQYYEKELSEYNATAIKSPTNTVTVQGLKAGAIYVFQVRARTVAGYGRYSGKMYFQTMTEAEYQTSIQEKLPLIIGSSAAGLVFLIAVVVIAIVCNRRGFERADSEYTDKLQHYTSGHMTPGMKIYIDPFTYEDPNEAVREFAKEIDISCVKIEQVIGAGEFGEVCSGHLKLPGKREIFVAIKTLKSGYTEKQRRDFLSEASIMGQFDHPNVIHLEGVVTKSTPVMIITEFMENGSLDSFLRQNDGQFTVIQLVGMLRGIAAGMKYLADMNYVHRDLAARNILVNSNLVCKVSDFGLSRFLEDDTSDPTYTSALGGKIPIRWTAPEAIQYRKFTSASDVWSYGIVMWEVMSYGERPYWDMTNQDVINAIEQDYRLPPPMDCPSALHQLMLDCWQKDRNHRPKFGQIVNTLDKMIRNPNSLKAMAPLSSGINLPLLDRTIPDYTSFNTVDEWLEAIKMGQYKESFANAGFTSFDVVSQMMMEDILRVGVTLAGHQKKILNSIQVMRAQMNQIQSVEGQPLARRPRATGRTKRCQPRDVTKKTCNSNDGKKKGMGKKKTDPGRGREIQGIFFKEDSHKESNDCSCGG
Excerpt: The effect of potential modulators of kinase activity can be measured in a variety of different assays known in the art. For example, direct radiometric, indirect FRET or AlphaScreen assays may be used to assess the level of phosphorylation of a substrate in the presence of test compounds in order to determine the inhibitory affect of the compound on the kinase. Invitrogen (Carlsbad, Calif.) uses a FRET based assay for Btk, EGFR, EphB2, Flt3, lrak4, Kdr, MAP2K1, MAPKAPK2, PDGFRB, PKC theta, Stk6 and Yes. For these assays, compounds of the invention were screened by Invitrogen using Z′-Lyte™ kinase assay.
Briefly, the Invitrogen kinase assay involves use of a specific peptide substrate optimized for each kinase, containing a fluorophore at each end that make up the FRET pair. The peptide sensitivity to proteolytic cleavage depends on phosphorylation of the peptide. Non-phosphorylated peptide is cleaved by a protease while peptide phosphorylated by the kinase is not cleaved. Cleavage of the peptide disrupts the FRET between the donor (coumarin) and acceptor (fluorescein) fluorophores, resulting in an increase in the ratio of donor emission to acceptor emission. The emission ratio of coumarin to fluorescein is used to assess the reaction progress. The extent of phosphorylation is determined from the emission ratio, which is low when the kinase is active (phosphorylated peptide is not cleaved, FRET pair connected) or higher for inhibited kinase (non-phosphorylated peptide is cleaved, FRET pair separated). Thus, the assay involves a kinase reaction in the presence of varying concentrations of a given compound, a development reaction with site specific protease, and detection of the fluorescent emission ratio of coumarin and fluorscein. […] Reaction conditions for each kinase are determined to provide optimal reaction times, incubation temperature, kinase and ATP concentrations. Test samples are made up in 1× kinase buffer (50 mM HEPES pH 7.5, 50 mM MgCl2, 5 mM EGTA, 0.05% BRIJ-35) and compound at desired concentration prepared in DMSO such that the final DMSO is 1%. […] Typically, assay plates are prepared to 10 μl final volume per sample, adding 2.5 μl of compound at 4× the desired concentration in 4% DMSO (serial dilution of compound provides concentration curve), 5 μl of the desired kinase mixed with Z′-LYTE™ peptide substrate (2× in 2× kinase buffer, final peptide at 2 μM), and 2.5 μl of 4×ATP solution. All kinase except for MAP2K1 were at 10 μM ATP in the kinase reaction, while MAP2K1 was at 100 μM. Samples are mixed and the kinase reaction is incubated 1 hour at room temperature, after which 5 μl of development solution is added and mixed. After incubation for another 1 hour at room temperature, 5 μl of stop reagent is added to each sample and mixed. The fluorescence signals are measured to determine the emission ratio.

B-Raf V600E = target: T7, B-Raf V600E (Homo sapiens, UniProt P15056, V600E); experiment: AlphaScreen kinase assay, B-Raf V600E; settings: read-out: IC50, activity toward kinase B-Raf V600E
T7 construct: P4254. pFastBacBD-CDC37 BRAF D437-K722-X, V600E; His6 with pFastBac HT leader (TEV site) (N); made in house; host or cells: Sf9 (baculovirus; chaperone CDC37 co-expressed)
T7 sequence (P15056 with tags, fused parts or gaps V600E): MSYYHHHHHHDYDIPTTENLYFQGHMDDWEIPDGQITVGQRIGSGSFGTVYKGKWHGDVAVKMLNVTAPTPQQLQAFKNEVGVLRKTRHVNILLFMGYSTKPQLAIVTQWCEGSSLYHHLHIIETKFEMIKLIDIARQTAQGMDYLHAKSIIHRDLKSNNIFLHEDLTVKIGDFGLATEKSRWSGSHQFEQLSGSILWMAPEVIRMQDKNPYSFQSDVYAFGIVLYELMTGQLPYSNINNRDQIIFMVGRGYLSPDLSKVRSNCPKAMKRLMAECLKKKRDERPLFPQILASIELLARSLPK

Btk = target: T8, Btk (Homo sapiens, UniProt Q06187); experiment: Z'-Lyte FRET kinase assay (Invitrogen), Btk; settings: read-out: IC50, activity toward kinase Btk
T8 construct: purchased Invitrogen (assay run by Invitrogen)
T8 sequence (Q06187 whole entry): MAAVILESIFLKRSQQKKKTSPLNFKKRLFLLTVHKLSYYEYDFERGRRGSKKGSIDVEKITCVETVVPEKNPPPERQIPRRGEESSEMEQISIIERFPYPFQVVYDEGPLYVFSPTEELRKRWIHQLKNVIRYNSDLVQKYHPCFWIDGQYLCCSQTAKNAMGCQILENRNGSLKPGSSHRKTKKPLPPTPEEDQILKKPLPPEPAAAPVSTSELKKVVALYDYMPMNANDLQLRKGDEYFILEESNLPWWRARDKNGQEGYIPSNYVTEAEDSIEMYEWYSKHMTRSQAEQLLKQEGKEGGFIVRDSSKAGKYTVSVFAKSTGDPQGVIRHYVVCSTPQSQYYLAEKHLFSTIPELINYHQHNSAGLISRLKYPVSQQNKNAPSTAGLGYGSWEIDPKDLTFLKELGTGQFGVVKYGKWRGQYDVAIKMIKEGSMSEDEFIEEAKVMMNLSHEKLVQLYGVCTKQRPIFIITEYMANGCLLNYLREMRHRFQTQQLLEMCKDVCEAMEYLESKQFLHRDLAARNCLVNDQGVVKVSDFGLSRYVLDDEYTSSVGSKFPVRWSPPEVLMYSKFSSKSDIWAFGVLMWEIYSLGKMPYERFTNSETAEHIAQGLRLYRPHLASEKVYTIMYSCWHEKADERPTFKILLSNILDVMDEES

Gsk3β = Gsk3β (Homo sapiens, UniProt P49841); experiment: AlphaScreen kinase assay, Gsk3β; settings: read-out: IC50, activity toward kinase Gsk3β
Sequence of Gsk3β (P49841 whole entry): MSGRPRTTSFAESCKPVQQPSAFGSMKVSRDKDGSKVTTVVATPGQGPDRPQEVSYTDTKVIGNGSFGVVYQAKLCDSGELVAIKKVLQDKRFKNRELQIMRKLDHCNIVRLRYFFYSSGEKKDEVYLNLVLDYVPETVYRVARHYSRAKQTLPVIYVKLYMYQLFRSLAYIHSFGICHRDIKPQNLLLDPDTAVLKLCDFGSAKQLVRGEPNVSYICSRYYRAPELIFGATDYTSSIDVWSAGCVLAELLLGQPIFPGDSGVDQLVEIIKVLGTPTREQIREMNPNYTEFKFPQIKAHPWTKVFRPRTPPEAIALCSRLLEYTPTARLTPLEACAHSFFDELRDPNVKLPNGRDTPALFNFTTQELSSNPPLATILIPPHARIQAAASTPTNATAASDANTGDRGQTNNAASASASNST
Excerpt: AlphaScreen assay was used to screen additional kinases. The assay is similarly dependent on the phosphorylation of a peptide substrate. In this assay, an antibody that recognizes phosphorylated substrate is bound to an acceptor bead. The peptide substrate is attached to biotin, which binds to a donor head that contains streptavidin. Thus phosphorylated substrate is bound by antibody and streptavidin, bringing the donor and acceptor heads into close proximity when kinase is not inhibited. The donor produces singlet oxygen which results in emission from the acceptor when they are in close proximity. Conversely, when kinase is inhibited, the donor and acceptor beads are not associated and the emission from the acceptor is reduced.
AlphaScreen assays were done using compounds dissolved in DMSO to a concentration of 20 mM. The compounds were diluted accordingly to the desired final concentrations in each sample well, using 1:3 serial dilution for a total of 8 concentration points.

Yes = target: T9, Yes (Homo sapiens, UniProt P07947); experiment: Z'-Lyte FRET kinase assay (Invitrogen), Yes; settings: read-out: IC50, activity toward kinase Yes
T9 construct: purchased Invitrogen (Carlsbad, Calif.), screening service
T9 sequence (P07947 whole entry): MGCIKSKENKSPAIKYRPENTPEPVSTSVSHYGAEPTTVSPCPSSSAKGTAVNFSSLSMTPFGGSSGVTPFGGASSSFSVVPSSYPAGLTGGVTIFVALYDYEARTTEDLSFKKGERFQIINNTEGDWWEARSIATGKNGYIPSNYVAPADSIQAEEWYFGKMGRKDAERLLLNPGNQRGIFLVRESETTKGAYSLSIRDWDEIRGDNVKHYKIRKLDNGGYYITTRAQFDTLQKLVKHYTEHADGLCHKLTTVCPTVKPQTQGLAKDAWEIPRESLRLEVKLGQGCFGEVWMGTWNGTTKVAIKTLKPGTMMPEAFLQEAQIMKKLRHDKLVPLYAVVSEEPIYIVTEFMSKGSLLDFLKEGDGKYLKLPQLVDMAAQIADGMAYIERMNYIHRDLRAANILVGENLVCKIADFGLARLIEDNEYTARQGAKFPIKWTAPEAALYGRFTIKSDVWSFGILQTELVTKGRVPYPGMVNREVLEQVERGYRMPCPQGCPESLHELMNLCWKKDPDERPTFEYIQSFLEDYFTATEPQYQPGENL
Outline: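 Under a compound concentration curve, the kinase acted on a dual-labelled peptide at 2 μM with ATP at 10 μM for one hour at ambient temperature (buffer pH 7.5, 1% DMSO). Phosphorylation extent came from the emission ratio after protease development.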

Stk6 = target: T10, Stk6 (Homo sapiens, UniProt O14965); experiment: Z'-Lyte FRET kinase assay (Invitrogen), Stk6; settings: read-out: IC50, activity toward kinase Stk6
T10 construct: purchased Invitrogen (Carlsbad, Calif.), screening service
T10 sequence (O14965 1-403): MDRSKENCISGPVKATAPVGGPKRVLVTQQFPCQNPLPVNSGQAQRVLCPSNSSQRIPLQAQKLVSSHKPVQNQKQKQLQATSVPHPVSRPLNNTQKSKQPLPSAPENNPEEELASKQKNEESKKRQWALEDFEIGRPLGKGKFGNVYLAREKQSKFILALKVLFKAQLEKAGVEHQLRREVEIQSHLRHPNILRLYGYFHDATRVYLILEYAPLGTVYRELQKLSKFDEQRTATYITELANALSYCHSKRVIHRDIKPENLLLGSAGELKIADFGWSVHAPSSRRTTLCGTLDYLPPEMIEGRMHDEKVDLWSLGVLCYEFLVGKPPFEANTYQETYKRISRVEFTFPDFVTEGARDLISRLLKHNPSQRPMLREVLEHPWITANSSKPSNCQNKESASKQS
Excerpt: For example, direct radiometric, indirect FRET or AlphaScreen assays may be used to assess the level of phosphorylation of a substrate in the presence of test compounds in order to determine the inhibitory affect of the compound on the kinase. […] For these assays, compounds of the invention were screened by Invitrogen using Z′-Lyte™ kinase assay.
Briefly, the Invitrogen kinase assay involves use of a specific peptide substrate optimized for each kinase, containing a fluorophore at each end that make up the FRET pair. The peptide sensitivity to proteolytic cleavage depends on phosphorylation of the peptide. Non-phosphorylated peptide is cleaved by a protease while peptide phosphorylated by the kinase is not cleaved. Cleavage of the peptide disrupts the FRET between the donor (coumarin) and acceptor (fluorescein) fluorophores, resulting in an increase in the ratio of donor emission to acceptor emission. The emission ratio of coumarin to fluorescein is used to assess the reaction progress. […] Thus, the assay involves a kinase reaction in the presence of varying concentrations of a given compound, a development reaction with site specific protease, and detection of the fluorescent emission ratio of coumarin and fluorscein. […] Reaction conditions for each kinase are determined to provide optimal reaction times, incubation temperature, kinase and ATP concentrations. Test samples are made up in 1× kinase buffer (50 mM HEPES pH 7.5, 50 mM MgCl2, 5 mM EGTA, 0.05% BRIJ-35) and compound at desired concentration prepared in DMSO such that the final DMSO is 1%. […] All kinase except for MAP2K1 were at 10 μM ATP in the kinase reaction, while MAP2K1 was at 100 μM. Samples are mixed and the kinase reaction is incubated 1 hour at room temperature, after which 5 μl of development solution is added and mixed. After incubation for another 1 hour at room temperature, 5 μl of stop reagent is added to each sample and mixed. The fluorescence signals are measured to determine the emission ratio.

MAP2K1 = target: T11, MAP2K1 (Homo sapiens, UniProt Q02750); experiment: Z'-Lyte FRET kinase assay (Invitrogen), MAP2K1; settings: read-out: IC50, activity toward kinase MAP2K1
T11 construct: purchased Invitrogen (assay run by Invitrogen)
T11 sequence (Q02750 whole entry): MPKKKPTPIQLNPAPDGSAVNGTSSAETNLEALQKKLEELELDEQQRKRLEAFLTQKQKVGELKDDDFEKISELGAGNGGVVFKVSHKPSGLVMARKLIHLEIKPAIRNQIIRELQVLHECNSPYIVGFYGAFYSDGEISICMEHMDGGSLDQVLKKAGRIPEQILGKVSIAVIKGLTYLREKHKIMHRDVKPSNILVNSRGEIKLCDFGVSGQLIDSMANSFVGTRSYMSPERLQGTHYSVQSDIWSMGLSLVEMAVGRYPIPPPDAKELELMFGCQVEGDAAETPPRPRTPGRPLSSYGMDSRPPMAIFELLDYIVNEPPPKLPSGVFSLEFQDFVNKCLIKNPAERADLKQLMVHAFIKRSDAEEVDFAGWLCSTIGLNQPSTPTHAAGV

SMILES: COc1ccc(C#Cc2ccnc3[nH]ccc23)cc1 [Compound P-0920]
- IC50 (IKK beta): ≤ 10 µM

SMILES: COc1ccc(-c2c[nH]c3ncccc23)cc1F [Compound P-0690]
- IC50 (IKK beta): ≤ 10 µM
- IC50 (Kit): ≤ 10 µM

SMILES: CSc1cccc(-c2c[nH]c3ncccc23)c1 [Compound P-0315]
- IC50 (IKK beta): ≤ 10 µM
- IC50 (Flt1): ≤ 10 µM
- IC50 (Kit): ≤ 10 µM

SMILES: NC(=O)c1ccc(-c2ccnc3[nH]cc(C(=O)c4cccc(Cl)c4Cl)c23)cc1 [Compound P-0053]
- IC50 (Kdr): ≤ 10 µM
- IC50 (Ret): ≤ 10 µM
- IC50 (EphB2): ≤ 10 µM
- IC50 (B-Raf V600E): ≤ 10 µM
- IC50 (Btk): ≤ 10 µM
- IC50 (Gsk3β): ≤ 10 µM
- IC50 (Yes): ≤ 10 µM

SMILES: O=C(CCBr)c1c[nH]c2ncccc12 [Compound P-0081]
- IC50 (Kdr): ≤ 10 µM
- IC50 (Btk): ≤ 10 µM
- IC50 (Stk6): ≤ 10 µM
- IC50 (Gsk3β): ≤ 10 µM
- IC50 (MAP2K1): ≤ 10 µM
- IC50 (Yes): ≤ 10 µM

SMILES: c1ccc2oc(-c3ccnc4[nH]ccc34)cc2c1 [Compound P-0790]
- IC50 (IKK beta): ≤ 10 µM

SMILES: c1cc(-c2ccsc2)c2cc[nH]c2n1 [Compound P-0629]
- IC50 (IKK beta): ≤ 10 µM
- IC50 (Flt1): ≤ 10 µM

SMILES: CCS(=O)(=O)c1ccc(-c2c(C)[nH]c3ncccc23)cc1 [Compound P-1223]
- IC50 (IKK beta): ≤ 10 µM

SMILES: C[C@H]1CN(c2ccc(-c3ccnc4[nH]ccc34)cn2)CCN1 [Compound P-0410]
- IC50 (IKK beta): ≤ 10 µM
